Laboratory results taken from ChEMBL document CHEMBL1201862, “PubChem BioAssay data set” (2004).
Blank lines part the entries; values can stand above or below the compound they belong to. The source made the active and inactive calls.

Assays:
[1] = target: T1, Tyrosine-protein phosphatase non-receptor type 7 (Homo sapiens, UniProt P35236); test: HePTP (PTPN7) phosphatase inhibitor potency, SAR follow-up, biochemical, set 2 (AID 449736); type: functional
T1 sequence (P35236 whole entry): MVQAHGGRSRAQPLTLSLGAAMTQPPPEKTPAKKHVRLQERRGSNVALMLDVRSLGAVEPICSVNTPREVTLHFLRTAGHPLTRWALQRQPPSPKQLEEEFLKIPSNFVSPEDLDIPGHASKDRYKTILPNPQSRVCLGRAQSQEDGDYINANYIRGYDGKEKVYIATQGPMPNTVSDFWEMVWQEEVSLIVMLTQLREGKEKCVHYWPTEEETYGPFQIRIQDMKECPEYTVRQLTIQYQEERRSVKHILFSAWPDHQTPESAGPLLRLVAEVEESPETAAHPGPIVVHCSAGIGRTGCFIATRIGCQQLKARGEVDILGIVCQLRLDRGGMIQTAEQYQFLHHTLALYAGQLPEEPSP

[2] = target: Voltage-dependent T-type calcium channel subunit alpha-1H (Homo sapiens, UniProt O95180); test: Cav3.2 T-type channel blockers, cell-based, SynthLib3 library, HEK293 Cav3.2, fluorescence (AID 493041); type: functional
[3] = target: T1, Tyrosine-protein phosphatase non-receptor type 7; type: functional
[4] = target: T2, Tyrosine-protein phosphatase non-receptor type 22 (Homo sapiens, UniProt Q9Y2R2); type: functional
T2 sequence (Q9Y2R2 whole entry): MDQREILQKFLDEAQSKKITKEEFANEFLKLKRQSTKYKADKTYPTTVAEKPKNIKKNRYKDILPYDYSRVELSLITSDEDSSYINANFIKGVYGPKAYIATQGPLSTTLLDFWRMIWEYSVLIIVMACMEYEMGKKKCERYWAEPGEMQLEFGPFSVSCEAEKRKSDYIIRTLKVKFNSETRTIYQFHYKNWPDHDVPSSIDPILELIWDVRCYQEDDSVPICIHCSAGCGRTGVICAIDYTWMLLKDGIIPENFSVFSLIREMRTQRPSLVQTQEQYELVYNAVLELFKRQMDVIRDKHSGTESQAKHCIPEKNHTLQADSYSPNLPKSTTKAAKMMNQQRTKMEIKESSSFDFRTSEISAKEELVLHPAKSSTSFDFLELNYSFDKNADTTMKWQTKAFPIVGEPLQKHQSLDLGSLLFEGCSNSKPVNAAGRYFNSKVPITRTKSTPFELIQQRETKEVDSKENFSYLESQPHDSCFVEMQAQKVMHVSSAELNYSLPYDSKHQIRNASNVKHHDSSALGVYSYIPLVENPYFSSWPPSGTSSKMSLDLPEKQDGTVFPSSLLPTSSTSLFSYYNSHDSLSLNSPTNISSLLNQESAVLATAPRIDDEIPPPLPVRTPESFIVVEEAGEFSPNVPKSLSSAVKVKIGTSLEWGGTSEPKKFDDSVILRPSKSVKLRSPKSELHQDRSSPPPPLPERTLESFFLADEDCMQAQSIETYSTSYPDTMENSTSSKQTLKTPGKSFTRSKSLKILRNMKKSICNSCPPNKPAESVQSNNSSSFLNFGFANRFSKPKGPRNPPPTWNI

[5] = target: T2, Tyrosine-protein phosphatase non-receptor type 22; type: functional; remark: listed apart in the source
[6] = target: T3, Intestinal-type alkaline phosphatase (Homo sapiens, UniProt P09923); test: Dose Response confirmation of uHTS hits from a small molecule inhibitors of human intestinal alkaline phosphatase via a luminescent assay. [Related pubchem assays (depositor defined):AID2544, AID2574]; type: functional
T3 sequence (P09923 whole entry): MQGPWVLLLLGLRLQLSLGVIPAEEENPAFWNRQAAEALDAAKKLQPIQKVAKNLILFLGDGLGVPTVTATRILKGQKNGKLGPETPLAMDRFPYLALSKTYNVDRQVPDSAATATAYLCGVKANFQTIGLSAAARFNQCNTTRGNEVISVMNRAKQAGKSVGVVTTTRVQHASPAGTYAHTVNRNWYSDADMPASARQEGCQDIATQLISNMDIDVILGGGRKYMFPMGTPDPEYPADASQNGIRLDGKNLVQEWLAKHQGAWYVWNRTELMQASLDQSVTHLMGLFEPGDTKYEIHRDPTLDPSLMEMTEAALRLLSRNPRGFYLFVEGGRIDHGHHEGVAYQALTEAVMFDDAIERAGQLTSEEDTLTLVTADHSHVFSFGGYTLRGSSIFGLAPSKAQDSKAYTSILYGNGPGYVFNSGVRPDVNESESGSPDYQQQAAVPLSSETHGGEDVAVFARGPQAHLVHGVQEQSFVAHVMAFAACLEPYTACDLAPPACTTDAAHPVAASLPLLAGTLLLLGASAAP

[7] = target: T3, Intestinal-type alkaline phosphatase; test: human intestinal alkaline phosphatase activators, dose response, biochemical, luminescence, uHTS hits (AID 463120); type: functional
[8] = target: T4, Aminopeptidase N (Plasmodium falciparum FcB1/Columbia, UniProt O96935); test: P. falciparum M1AAP inhibitors, biochemical, fluorogenic H-Leu-NHMec substrate, 1536-well (AID 1445); parameters: species or system Plasmodium falciparum 3D7, 3D7
T4 sequence (O96935 whole entry): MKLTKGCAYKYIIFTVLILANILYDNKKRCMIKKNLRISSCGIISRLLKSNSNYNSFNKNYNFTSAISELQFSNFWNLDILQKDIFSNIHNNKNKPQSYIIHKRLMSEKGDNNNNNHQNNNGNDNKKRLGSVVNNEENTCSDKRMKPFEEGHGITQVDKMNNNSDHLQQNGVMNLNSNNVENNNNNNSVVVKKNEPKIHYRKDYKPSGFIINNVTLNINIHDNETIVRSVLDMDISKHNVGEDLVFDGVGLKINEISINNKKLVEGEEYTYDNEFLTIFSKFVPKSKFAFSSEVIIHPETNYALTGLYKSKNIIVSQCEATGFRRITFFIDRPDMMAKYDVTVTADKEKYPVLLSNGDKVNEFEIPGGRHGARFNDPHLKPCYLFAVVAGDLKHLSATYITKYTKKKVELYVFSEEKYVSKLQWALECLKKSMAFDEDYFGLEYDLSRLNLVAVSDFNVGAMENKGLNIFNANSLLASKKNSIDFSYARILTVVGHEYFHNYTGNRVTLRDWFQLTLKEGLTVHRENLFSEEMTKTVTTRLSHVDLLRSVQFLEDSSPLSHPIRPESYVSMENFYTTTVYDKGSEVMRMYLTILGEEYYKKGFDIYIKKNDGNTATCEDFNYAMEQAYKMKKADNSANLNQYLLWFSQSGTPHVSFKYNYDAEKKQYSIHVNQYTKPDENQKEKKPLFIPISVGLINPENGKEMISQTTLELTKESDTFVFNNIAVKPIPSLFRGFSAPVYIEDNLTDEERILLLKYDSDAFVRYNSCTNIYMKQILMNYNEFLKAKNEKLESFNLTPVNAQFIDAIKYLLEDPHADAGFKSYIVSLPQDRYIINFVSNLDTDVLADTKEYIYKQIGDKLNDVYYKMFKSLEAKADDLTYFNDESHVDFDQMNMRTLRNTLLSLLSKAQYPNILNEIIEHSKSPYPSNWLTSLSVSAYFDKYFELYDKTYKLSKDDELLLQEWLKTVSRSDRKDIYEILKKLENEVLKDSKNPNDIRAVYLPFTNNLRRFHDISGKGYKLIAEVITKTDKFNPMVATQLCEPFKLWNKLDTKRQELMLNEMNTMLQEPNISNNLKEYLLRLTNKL

[9] = target: T5, Runt-related transcription factor 1/Core-binding factor subunit beta (Homo sapiens, UniProt Q01196+Q13951); test: inhibitors of RUNX1 Runt–CBFb-SMMHC binding, primary screen, biochemical, FRET, Cerulean-Runt, Venus-CBFb-SMMHC, uHTS (AID 1434); type: protein assay;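 further: partner is the CBFb-SMMHC leukemia fusion protein rather than wild-type CBFb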
T5 sequence (Q01196 whole entry, the tested form may be a part): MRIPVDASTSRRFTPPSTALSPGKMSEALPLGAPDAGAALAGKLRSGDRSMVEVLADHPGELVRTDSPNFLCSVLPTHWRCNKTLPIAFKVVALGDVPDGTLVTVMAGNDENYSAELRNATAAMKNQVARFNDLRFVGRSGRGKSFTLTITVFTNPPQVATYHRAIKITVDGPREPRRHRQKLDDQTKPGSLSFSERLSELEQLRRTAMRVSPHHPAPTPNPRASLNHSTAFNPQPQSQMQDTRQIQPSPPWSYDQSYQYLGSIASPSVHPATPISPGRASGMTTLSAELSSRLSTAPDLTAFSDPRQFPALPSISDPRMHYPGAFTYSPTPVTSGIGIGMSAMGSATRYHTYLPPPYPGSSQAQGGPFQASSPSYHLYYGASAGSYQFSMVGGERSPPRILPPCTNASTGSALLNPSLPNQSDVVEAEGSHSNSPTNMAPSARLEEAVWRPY
T5 sequence (Q13951 whole entry, the tested form may be a part): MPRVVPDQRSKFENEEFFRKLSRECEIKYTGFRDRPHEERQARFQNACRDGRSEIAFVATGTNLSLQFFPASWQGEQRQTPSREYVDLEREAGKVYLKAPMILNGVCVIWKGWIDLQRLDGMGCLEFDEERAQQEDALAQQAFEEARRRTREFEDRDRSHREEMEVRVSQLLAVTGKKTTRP

[10] = target: T5, Runt-related transcription factor 1/Core-binding factor subunit beta; test: inhibitors of RUNX1 Runt–CBFb-SMMHC binding, biochemical, TR-FRET (AID 1438); type: protein assay
[11] = target: Signal transducer and activator of transcription 3 (Homo sapiens, UniProt P40763); test: STAT3 inhibitors, late-stage profile, late-stage follow-up, cell-based, STAT1 panel, qPCR, cytotoxicity, panel member STAT3 Inhibition (AID 2078)
Chain of Signal transducer and activator of transcription 3 (P40763 whole entry): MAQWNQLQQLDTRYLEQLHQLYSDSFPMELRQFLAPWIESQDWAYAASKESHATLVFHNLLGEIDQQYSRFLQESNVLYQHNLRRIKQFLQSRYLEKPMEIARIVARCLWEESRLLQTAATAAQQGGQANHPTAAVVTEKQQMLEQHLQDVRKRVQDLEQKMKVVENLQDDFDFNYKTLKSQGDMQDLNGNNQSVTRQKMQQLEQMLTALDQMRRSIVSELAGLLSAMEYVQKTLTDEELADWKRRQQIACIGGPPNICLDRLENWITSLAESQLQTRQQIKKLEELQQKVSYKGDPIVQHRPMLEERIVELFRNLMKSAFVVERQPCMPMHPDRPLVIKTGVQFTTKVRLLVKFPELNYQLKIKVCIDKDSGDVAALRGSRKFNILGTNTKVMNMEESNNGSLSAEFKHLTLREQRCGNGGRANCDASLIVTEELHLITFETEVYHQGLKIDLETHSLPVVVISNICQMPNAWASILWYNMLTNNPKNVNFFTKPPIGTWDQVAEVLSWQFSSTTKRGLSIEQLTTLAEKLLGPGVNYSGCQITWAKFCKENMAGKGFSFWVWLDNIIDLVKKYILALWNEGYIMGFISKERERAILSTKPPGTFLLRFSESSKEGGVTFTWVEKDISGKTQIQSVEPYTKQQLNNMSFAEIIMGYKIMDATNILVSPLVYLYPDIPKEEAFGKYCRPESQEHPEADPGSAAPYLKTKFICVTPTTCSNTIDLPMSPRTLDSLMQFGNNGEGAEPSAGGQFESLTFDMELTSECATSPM

[12] = target: Signal transducer and activator of transcription 1-alpha/beta (Homo sapiens, UniProt P42224); test: STAT3 inhibitors, late-stage profile, late-stage follow-up, cell-based, STAT1 panel, qPCR, cytotoxicity, panel member STAT1 Inhibition (AID 2078)
Chain of Signal transducer and activator of transcription 1-alpha/beta (P42224 whole entry): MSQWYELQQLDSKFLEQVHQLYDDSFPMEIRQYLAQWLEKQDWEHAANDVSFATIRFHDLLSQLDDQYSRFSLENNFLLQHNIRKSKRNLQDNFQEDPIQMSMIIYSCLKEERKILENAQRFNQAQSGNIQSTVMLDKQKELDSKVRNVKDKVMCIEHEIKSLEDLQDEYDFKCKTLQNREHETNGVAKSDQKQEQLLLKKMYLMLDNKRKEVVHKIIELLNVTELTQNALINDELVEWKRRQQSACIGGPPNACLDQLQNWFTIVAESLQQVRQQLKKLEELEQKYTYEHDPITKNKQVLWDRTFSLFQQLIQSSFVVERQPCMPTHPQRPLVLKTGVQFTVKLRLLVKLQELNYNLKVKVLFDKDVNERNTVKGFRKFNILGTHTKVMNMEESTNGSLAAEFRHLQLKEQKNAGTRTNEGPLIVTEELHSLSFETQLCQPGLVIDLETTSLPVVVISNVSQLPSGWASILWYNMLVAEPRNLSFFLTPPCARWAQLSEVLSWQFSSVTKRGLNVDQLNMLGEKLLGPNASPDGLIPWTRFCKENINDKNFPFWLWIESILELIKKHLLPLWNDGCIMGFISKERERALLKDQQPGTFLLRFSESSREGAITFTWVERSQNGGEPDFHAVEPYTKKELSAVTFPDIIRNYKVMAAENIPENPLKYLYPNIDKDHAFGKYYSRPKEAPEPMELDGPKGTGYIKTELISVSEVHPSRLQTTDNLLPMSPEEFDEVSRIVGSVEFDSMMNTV

[13] = target: T6, Kappa-type opioid receptor (Homo sapiens, UniProt P41145); test: KOR agonist analogs, arrestin-GFP redistribution, SAR follow-up, imaging, image-based, set 3 (AID 488833); type: functional
T6 sequence (P41145 whole entry): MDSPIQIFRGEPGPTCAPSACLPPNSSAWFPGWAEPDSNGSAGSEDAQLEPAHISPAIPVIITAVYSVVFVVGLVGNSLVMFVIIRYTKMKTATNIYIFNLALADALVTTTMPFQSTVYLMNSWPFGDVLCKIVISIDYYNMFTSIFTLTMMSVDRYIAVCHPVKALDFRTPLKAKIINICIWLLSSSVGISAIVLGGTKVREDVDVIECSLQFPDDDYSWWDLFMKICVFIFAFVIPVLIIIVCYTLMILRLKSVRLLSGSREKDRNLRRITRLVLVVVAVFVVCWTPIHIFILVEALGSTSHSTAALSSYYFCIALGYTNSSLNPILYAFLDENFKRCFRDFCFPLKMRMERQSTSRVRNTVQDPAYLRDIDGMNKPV

[14] = target: Mu-type opioid receptor (Homo sapiens, UniProt P35372); test: SAR Analysis of Agonists of the MOR Receptor using an Image-Based Assay - Set 3. [Related pubchem assays (depositor defined):AID1777, AID1785, AID1786, AID1966, AID2133, AID2136, AID2284, AID2285, AID2352]; type: functional
[15] = target: Delta-type opioid receptor (Homo sapiens, UniProt P41143); test: SAR Analysis of Agonists of the DOR Receptor using an Image-Based Assay - Set 3. [Related pubchem assays (depositor defined):AID1777, AID1786]; type: functional
Chain of Delta-type opioid receptor (P41143 whole entry): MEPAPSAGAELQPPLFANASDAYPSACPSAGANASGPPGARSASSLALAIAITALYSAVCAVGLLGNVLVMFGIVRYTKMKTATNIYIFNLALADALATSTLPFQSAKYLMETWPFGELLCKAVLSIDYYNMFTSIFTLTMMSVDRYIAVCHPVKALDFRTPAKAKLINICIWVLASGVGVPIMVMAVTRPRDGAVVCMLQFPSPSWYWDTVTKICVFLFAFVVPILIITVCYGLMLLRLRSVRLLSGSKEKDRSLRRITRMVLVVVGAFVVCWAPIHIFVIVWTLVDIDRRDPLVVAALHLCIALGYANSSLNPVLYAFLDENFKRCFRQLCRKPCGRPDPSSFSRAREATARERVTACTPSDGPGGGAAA

[16] = target: T6, Kappa-type opioid receptor; test: SAR analysis of small molecule agonists of the kappa opioid receptor via a luminescent beta-arrestin assay - Set 3. [Related pubchem assays (depositor defined):AID1777, AID1785, AID1786, AID1966, AID2133, AID2136, AID2284, AID2500]; type: functional
[17] = tested on: T-cell; test: inhibitors of CD8+ T cell–vesicle binding, dose response, mouse 2C CD8+ T cells, flow cytometry (AID 485284); type: functional
[18] = target: Hexokinase HKDC1 (Homo sapiens, UniProt Q2TB90); test: HKDC1 hexokinase inhibitors, dose response, biochemical, W721R variant (AID 504729); type: functional
[19] = target: Hexokinase-1 (Homo sapiens, UniProt P19367); test: hexokinase 1 activators, dose response, selectivity assay for HKDC1 activator project, biochemical (AID 504762); type: functional
[20] = target: T7, Rac GTPase-activating protein 1 (Homo sapiens, UniProt Q9H0H5); test: MgcRacGAP GTPase-activating activity inhibitors, confirmation, biochemical, ADP Hunter fluorescence, primary and confirmatory (AID 624330); type: functional
T7 sequence (Q9H0H5 whole entry): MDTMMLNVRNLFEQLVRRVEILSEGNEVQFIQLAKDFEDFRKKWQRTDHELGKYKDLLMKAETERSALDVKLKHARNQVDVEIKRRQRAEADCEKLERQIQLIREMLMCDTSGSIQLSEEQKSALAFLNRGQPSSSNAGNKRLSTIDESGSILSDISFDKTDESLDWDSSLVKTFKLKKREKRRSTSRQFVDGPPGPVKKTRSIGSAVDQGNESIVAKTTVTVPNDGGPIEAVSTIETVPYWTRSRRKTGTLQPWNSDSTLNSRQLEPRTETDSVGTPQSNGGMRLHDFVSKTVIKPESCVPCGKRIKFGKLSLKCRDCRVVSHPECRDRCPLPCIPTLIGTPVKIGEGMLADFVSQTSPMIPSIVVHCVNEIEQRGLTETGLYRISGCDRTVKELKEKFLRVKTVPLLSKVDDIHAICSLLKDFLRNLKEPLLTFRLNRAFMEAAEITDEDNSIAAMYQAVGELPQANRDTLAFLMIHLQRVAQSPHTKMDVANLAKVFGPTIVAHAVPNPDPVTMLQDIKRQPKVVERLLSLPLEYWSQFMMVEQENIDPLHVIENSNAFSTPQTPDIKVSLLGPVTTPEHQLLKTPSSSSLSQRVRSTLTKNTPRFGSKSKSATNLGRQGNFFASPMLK

[21] = target: T8, Cannabinoid receptor 2 (Homo sapiens, UniProt P34972); test: SAR analysis of antagonists of the Cannabinoid Receptor 2 using an Image-Based Assay - Set 2. [Related pubchem assays (depositor defined):AID1961, AID1965]; type: functional
T8 sequence (P34972 whole entry): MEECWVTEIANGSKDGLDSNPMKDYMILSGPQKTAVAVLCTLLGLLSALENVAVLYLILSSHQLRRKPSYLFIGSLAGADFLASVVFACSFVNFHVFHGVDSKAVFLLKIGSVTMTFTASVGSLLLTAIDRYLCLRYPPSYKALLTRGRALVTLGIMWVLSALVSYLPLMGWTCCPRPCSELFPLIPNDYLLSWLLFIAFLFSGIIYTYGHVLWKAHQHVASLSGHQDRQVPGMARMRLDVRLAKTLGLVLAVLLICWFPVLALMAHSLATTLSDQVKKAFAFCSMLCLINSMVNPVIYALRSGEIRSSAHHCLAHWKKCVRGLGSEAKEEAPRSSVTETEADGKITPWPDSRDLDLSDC

[22] = target: G-protein coupled receptor 55 (Homo sapiens, UniProt Q9Y2T6); test: SAR analysis of selective Agonists of GPR55 using an Image-Based Assay - Set 2. [Related pubchem assays (depositor defined):AID1961, AID1965]; type: functional
Chain of G-protein coupled receptor 55 (Q9Y2T6 whole entry): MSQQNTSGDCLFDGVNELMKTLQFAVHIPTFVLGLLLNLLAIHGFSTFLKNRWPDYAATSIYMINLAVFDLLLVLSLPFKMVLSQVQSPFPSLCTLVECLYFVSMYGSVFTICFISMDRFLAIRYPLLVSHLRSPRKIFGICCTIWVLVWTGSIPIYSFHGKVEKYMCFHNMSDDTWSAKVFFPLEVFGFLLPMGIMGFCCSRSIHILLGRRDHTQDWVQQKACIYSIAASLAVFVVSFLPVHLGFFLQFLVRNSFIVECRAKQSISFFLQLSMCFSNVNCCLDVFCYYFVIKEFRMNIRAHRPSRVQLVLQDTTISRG

[23] = target: T8, Cannabinoid receptor 2; test: SAR analysis of agonists of the Cannabinoid Receptor 2 using an Image-Based Assay - Set 2. [Related pubchem assays (depositor defined):AID1961, AID1965]; type: functional
[24] = target: T9, G-protein coupled receptor 35 (Homo sapiens, UniProt Q9HC97); test: SAR analysis of Agonists of the GPR35 Receptor using an Image-Based Assay - Set 3. [Related pubchem assays (depositor defined):AID1961, AID1965]; type: functional
T9 sequence (Q9HC97 whole entry): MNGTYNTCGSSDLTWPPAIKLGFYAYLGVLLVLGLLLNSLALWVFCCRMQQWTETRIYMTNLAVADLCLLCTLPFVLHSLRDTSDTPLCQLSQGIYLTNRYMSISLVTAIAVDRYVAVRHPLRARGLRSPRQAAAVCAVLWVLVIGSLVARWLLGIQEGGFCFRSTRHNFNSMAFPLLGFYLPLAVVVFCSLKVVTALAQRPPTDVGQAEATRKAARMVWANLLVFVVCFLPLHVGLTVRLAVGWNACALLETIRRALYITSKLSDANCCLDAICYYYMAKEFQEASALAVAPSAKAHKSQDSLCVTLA

[25] = target: T10, Cannabinoid receptor 1 (Homo sapiens, UniProt P21554); test: SAR analysis of antagonists of the Cannabinoid Receptor 1 using an Image-Based Assay - Set 3. [Related pubchem assays (depositor defined):AID1961, AID1965]; type: functional
T10 sequence (P21554 whole entry): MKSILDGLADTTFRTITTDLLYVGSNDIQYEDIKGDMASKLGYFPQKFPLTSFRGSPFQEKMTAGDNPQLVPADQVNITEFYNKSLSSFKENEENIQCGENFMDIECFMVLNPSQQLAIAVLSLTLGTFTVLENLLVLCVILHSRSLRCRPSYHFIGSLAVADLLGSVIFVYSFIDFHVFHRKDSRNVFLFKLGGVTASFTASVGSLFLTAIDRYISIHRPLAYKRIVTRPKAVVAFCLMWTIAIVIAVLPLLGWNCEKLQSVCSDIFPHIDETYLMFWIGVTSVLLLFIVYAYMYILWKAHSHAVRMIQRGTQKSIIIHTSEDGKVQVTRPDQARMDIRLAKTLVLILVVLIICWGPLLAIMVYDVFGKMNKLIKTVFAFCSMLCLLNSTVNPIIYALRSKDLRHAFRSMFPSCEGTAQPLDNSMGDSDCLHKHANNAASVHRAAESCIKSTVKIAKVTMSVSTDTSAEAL

[26] = target: T10, Cannabinoid receptor 1; test: SAR analysis of agonists of the Cannabinoid Receptor 1 using an Image-Based Assay - Set 3. [Related pubchem assays (depositor defined):AID1961, AID1965]; type: functional
[27] = target: T9, G-protein coupled receptor 35; test: SAR analysis of Antagonists of the GPR35 Receptor using an Image-Based Assay - Set 4. [Related pubchem assays (depositor defined):[…]]; type: functional

SMILES: CC(C)OCCCn1c(-c2ccco2)nc2nc3ccccc3nc21
- IC50 [8]: 92.6 µM (active)
- IC50 [9]: 7.07 µM (active)
- IC50 [10]: > 100 µM (inactive)

SMILES: c1ccc(CC2CCN(c3ncnc4scc(-c5cccs5)c34)CC2)cc1
- IC50 [11]: 16.7 µM (inactive)
- IC50 [12]: > 55.7 µM (inactive)

SMILES: CC(=O)Oc1ccc(CSc2nnc(-c3ccccn3)n2Cc2ccco2)cc1
- EC50 [13]: > 32 µM (inactive)
- EC50 [14]: > 32 µM (inactive)
- EC50 [15]: > 64 µM (inactive)
- EC50 [16]: > 20 µM (inactive)

SMILES: COc1ccc(C2=CC(=O)CC(c3ccc(OC)cc3)C2)cc1 (configuration not stated)
- EC50 [17]: 4.09 µM (active)

SMILES: O=C(CNC(=O)c1ccc2c(c1)OCCO2)N/N=C/c1ccc(O)cc1O
- IC50 [18]: > 80 µM (inactive)
- EC50 [19]: > 80 µM (inactive)
- IC50 [20]: 160 µM (active)

SMILES: Cc1cccc(N2CCN(C(=O)c3cccc(S(=O)(=O)N4CCOCC4)c3)CC2)c1C
- IC50 [21]: > 32 µM (inactive)
- EC50 [22]: > 32 µM (inactive)
- EC50 [23]: > 32 µM (inactive)
- EC50 [24]: > 32 µM (inactive)
- IC50 [25]: > 32 µM (inactive)
- EC50 [26]: > 32 µM (inactive)
- IC50 [27]: > 32 µM (inactive)

More lines, now with the values ahead:

- IC50 [1]: 66.5 µM (active)
SMILES: NS(=O)(=O)c1ccc(NC(=S)NC2CCCc3ccccc32)cc1 (configuration not stated)

- EC50 [2]: 4 µM (active)
SMILES: CCC(C)CN1C[C@@H]2C(CNC(=O)c3cc(Cl)cc(Cl)c3)[C@@H]2C1 (some centres not stated)

- IC50 [3]: > 79.4 µM (inactive)
- IC50 [4]: > 79.4 µM (inactive)
- IC50 [5]: > 79.4 µM (inactive)
SMILES: COc1ccc(S(=O)(=O)N2CCCCCC2)cc1C(=O)OCc1c(C)noc1C

- IC50 [6]: > 100 µM (inactive)
- EC50 [7]: > 100 µM (inactive)
SMILES: CCC(OC(=O)C1=Cc2ccccc2OC1)C(=O)NC1CCCC1 (configuration not stated)
